Reference: PubChem BioAssay AID2060490 (Molecular Pharmacology Branch, DTP, NCI, 2025)
pIC50: −log10 of the molar value.

Tested on: 885512-296-R-J2-PDC complex spheroid viability
Assay: Anticancer human tumor 885512-296-R-J2-PDC patient-derived breast carcinoma cell line growth inhibition [GQUAD]
Details: for pIC50: curve of first compound; for viability, T/C: stronger effect = lower value
Outline: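 Tumor cells were grown as complex spheroids with HUVEC endothelial cells and mesenchymal stem cells as stroma. G-quadruplex stabilizers were combined with targeted agents over half-log dilutions from near the clinical Cmax, or from 10 microM.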

[1] = second compound 0.0316 µM, first compound 0.0316 µM
[2] = second compound 0.0316 µM, first compound 0.1 µM
[3] = second compound 0.0316 µM, first compound 0.316 µM
[4] = second compound 0.0316 µM, first compound 1 µM
[5] = second compound 0.0316 µM, first compound 3.16 µM
[6] = second compound 0.0316 µM, first compound 10 µM
[7] = second compound 0.1 µM, first compound 0.0316 µM
[8] = second compound 0.1 µM, first compound 0.1 µM
[9] = second compound 0.1 µM, first compound 0.316 µM
[10] = second compound 0.1 µM, first compound 1 µM
[11] = second compound 0.1 µM, first compound 3.16 µM
[12] = second compound 0.1 µM, first compound 10 µM
[13] = second compound 0.316 µM, first compound 0.0316 µM
[14] = second compound 0.316 µM, first compound 0.1 µM
[15] = second compound 0.316 µM, first compound 0.316 µM
[16] = second compound 0.316 µM, first compound 1 µM
[17] = second compound 0.316 µM, first compound 3.16 µM
[18] = second compound 0.316 µM, first compound 10 µM
[19] = second compound 1 µM, first compound 0.0316 µM
[20] = second compound 1 µM, first compound 0.1 µM
[21] = second compound 1 µM, first compound 0.316 µM
[22] = second compound 1 µM, first compound 1 µM
[23] = second compound 1 µM, first compound 3.16 µM
[24] = second compound 1 µM, first compound 10 µM
[25] = second compound 3.16 µM, first compound 0.0316 µM
[26] = second compound 3.16 µM, first compound 0.1 µM
[27] = second compound 3.16 µM, first compound 0.316 µM
[28] = second compound 3.16 µM, first compound 1 µM
[29] = second compound 3.16 µM, first compound 3.16 µM
[30] = second compound 3.16 µM, first compound 10 µM
[31] = second compound 10 µM, first compound 0.0316 µM
[32] = second compound 10 µM, first compound 0.1 µM
[33] = second compound 10 µM, first compound 0.316 µM
[34] = second compound 10 µM, first compound 1 µM
[35] = second compound 10 µM, first compound 3.16 µM
[36] = second compound 10 µM, first compound 10 µM
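Also: spheroids exposed to the compounds for one week.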
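For viability, T/C in this document: percent of tumor spheroid viability relative to DMSO vehicle control wells.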

C=CC(=O)N1CCN(c2nc(=O)n(-c3c(C)ccnc3C(C)C)c3nc(-c4c(O)cccc4F)c(F)cc23)C(C)C1 (stereo not drawn) + Cc1cnc(CNC(=O)c2c(=O)c3ccc(N4CCCN(C)CC4)nc3n3c2sc2ccccc23)cn1
pIC50 (second compound 0.0316 µM): < 5.00 | pIC50 (second compound 0.1 µM): < 5.00 | pIC50 (second compound 0.316 µM): > 7.50 | pIC50 (second compound 1 µM): > 7.50 | pIC50 (second compound 3.16 µM): > 7.50 | pIC50 (second compound 10 µM): > 7.50 | viability, T/C [1]: 90.5% | viability, T/C [2]: 81.3% | viability, T/C [3]: 107% | viability, T/C [4]: 105% | viability, T/C [5]: 99.1% | viability, T/C [6]: 76.9% | viability, T/C [7]: 60.9% | viability, T/C [8]: 66% | viability, T/C [9]: 68.5% | viability, T/C [10]: 67.5% | viability, T/C [11]: 79.5% | viability, T/C [12]: 47.3% | viability, T/C [13]: 35.9% | viability, T/C [14]: 29.3% | viability, T/C [15]: 33.8% | viability, T/C [16]: 31.1% | viability, T/C [17]: 33.6% | viability, T/C [18]: 24% | viability, T/C [19]: 23.4% | viability, T/C [20]: 30.9% | viability, T/C [21]: 33.2% | viability, T/C [22]: 24.1% | viability, T/C [23]: 22.6% | viability, T/C [24]: 28.3% | viability, T/C [25]: 34.5% | viability, T/C [26]: 31.4% | viability, T/C [27]: 19.4% | viability, T/C [28]: 27% | viability, T/C [29]: 29.8% | viability, T/C [30]: 32.3% | viability, T/C [31]: 0.14% | viability, T/C [32]: 0.2% | viability, T/C [33]: 0.24% | viability, T/C [34]: 0.2% | viability, T/C [35]: 0.2% | viability, T/C [36]: 1.55%

Cc1cccc(N(C)C(=O)C2C(O)CCN2c2nc(C)cc(C(F)(F)F)c2C#N)c1 (stereo not drawn) + Cc1cnc(CNC(=O)c2c(=O)c3ccc(N4CCCN(C)CC4)nc3n3c2sc2ccccc23)cn1
pIC50 (second compound 0.0316 µM): < 5.00 | pIC50 (second compound 0.1 µM): < 5.00 | pIC50 (second compound 0.316 µM): > 7.50 | pIC50 (second compound 1 µM): > 7.50 | pIC50 (second compound 3.16 µM): > 7.50 | pIC50 (second compound 10 µM): > 7.50 | viability, T/C [1]: 93.2% | viability, T/C [2]: 86.2% | viability, T/C [3]: 87.4% | viability, T/C [4]: 82.8% | viability, T/C [5]: 91.4% | viability, T/C [6]: 75.6% | viability, T/C [7]: 65.8% | viability, T/C [8]: 64.4% | viability, T/C [9]: 63.1% | viability, T/C [10]: 61.2% | viability, T/C [11]: 52.5% | viability, T/C [12]: 63.9% | viability, T/C [13]: 31% | viability, T/C [14]: 36.2% | viability, T/C [15]: 35.8% | viability, T/C [16]: 33.9% | viability, T/C [17]: 28.6% | viability, T/C [18]: 28.6% | viability, T/C [19]: 26.3% | viability, T/C [20]: 29% | viability, T/C [21]: 28.4% | viability, T/C [22]: 25.6% | viability, T/C [23]: 27.3% | viability, T/C [24]: 28.7% | viability, T/C [25]: 43.4% | viability, T/C [26]: 25.7% | viability, T/C [27]: 30.3% | viability, T/C [28]: 30.5% | viability, T/C [29]: 28.5% | viability, T/C [30]: 30.2% | viability, T/C [31]: 0.21% | viability, T/C [32]: 0.26% | viability, T/C [33]: 0.26% | viability, T/C [34]: 0.25% | viability, T/C [35]: 0.25% | viability, T/C [36]: 0.25%

Cn1ncnc1[C@H]1c2n[nH]c(=O)c3cc(F)cc(c23)N[C@@H]1c1ccc(F)cc1 + Cc1cnc(CNC(=O)c2c(=O)c3ccc(N4CCCN(C)CC4)nc3n3c2sc2ccccc23)cn1
pIC50 (second compound 0.0316 µM): 7.36 | pIC50 (second compound 0.1 µM): 8.45 | pIC50 (second compound 0.316 µM): > 9.00 | pIC50 (second compound 1 µM): > 9.00 | pIC50 (second compound 3.16 µM): > 9.00 | pIC50 (second compound 10 µM): > 9.00 | viability, T/C (second compound 0.0316 µM, first compound 0.000999 µM): 89.2% | viability, T/C (second compound 0.0316 µM, first compound 0.00316 µM): 83.8% | viability, T/C (second compound 0.0316 µM, first compound 0.00999 µM): 73.5% | viability, T/C [1]: 57% | viability, T/C (second compound 0.0316 µM, first compound 0.0999 µM): 34.4% | viability, T/C [3]: 25.5% | viability, T/C (second compound 0.1 µM, first compound 0.000999 µM): 51.7% | viability, T/C (second compound 0.1 µM, first compound 0.00316 µM): 57.4% | viability, T/C (second compound 0.1 µM, first compound 0.00999 µM): 37.1% | viability, T/C [7]: 34% | viability, T/C (second compound 0.1 µM, first compound 0.0999 µM): 27.3% | viability, T/C [9]: 21.1% | viability, T/C (second compound 0.316 µM, first compound 0.000999 µM): 31.3% | viability, T/C (second compound 0.316 µM, first compound 0.00316 µM): 24% | viability, T/C (second compound 0.316 µM, first compound 0.00999 µM): 24.2% | viability, T/C [13]: 20.5% | viability, T/C (second compound 0.316 µM, first compound 0.0999 µM): 24% | viability, T/C [15]: 20.1% | viability, T/C (second compound 1 µM, first compound 0.000999 µM): 27.4% | viability, T/C (second compound 1 µM, first compound 0.00316 µM): 22.9% | viability, T/C (second compound 1 µM, first compound 0.00999 µM): 24.3% | viability, T/C [19]: 19.2% | viability, T/C (second compound 1 µM, first compound 0.0999 µM): 20% | viability, T/C [21]: 21.6% | viability, T/C (second compound 3.16 µM, first compound 0.000999 µM): 30.3% | viability, T/C (second compound 3.16 µM, first compound 0.00316 µM): 26.9% | viability, T/C (second compound 3.16 µM, first compound 0.00999 µM): 23.2% | viability, T/C [25]: 26.2% | viability, T/C (second compound 3.16 µM, first compound 0.0999 µM): 21.3% | viability, T/C [27]: 22.2% | viability, T/C (second compound 10 µM, first compound 0.000999 µM): 0.17% | viability, T/C (second compound 10 µM, first compound 0.00316 µM): 0.23% | viability, T/C (second compound 10 µM, first compound 0.00999 µM): 0.25% | viability, T/C [31]: 0.19% | viability, T/C (second compound 10 µM, first compound 0.0999 µM): 0.2% | viability, T/C [33]: 0.23%

O=C(c1cc(Cc2n[nH]c(=O)c3ccccc23)ccc1F)N1CCN(C(=O)C2CC2)CC1 + Cc1cnc(CNC(=O)c2c(=O)c3ccc(N4CCCN(C)CC4)nc3n3c2sc2ccccc23)cn1
pIC50 (second compound 0.0316 µM): 5.59 | pIC50 (second compound 0.1 µM): 6.26 | pIC50 (second compound 0.316 µM): > 7.50 | pIC50 (second compound 1 µM): > 7.50 | pIC50 (second compound 3.16 µM): > 7.50 | pIC50 (second compound 10 µM): > 7.50 | viability, T/C [1]: 78.3% | viability, T/C [2]: 69.4% | viability, T/C [3]: 95.4% | viability, T/C [4]: 83.6% | viability, T/C [5]: 42.9% | viability, T/C [6]: 23.8% | viability, T/C [7]: 57.4% | viability, T/C [8]: 55.5% | viability, T/C [9]: 53.2% | viability, T/C [10]: 46.8% | viability, T/C [11]: 35.4% | viability, T/C [12]: 22.5% | viability, T/C [13]: 28.4% | viability, T/C [14]: 26.7% | viability, T/C [15]: 25.7% | viability, T/C [16]: 17.6% | viability, T/C [17]: 10.7% | viability, T/C [18]: 15.5% | viability, T/C [19]: 23.4% | viability, T/C [20]: 22.8% | viability, T/C [21]: 25.7% | viability, T/C [22]: 21% | viability, T/C [23]: 18% | viability, T/C [24]: 18.4% | viability, T/C [25]: 25% | viability, T/C [26]: 26.6% | viability, T/C [27]: 27% | viability, T/C [28]: 24.5% | viability, T/C [29]: 23% | viability, T/C [30]: 8.85% | viability, T/C [31]: 0.44% | viability, T/C [32]: 0.21% | viability, T/C [33]: 0.23% | viability, T/C [34]: 0.19% | viability, T/C [35]: 0.23% | viability, T/C [36]: 0.19%
